# Measurements taken from article PMC7488503 (Acta Pharmaceutica Sinica. B, 2020).
# Test system: patient-derived tumor (LI-03-0020) xenograft
# Experiment: Liver cancer patient-derived tumor xenograft
# Format: in vivo, Balb/c nude mice
# Conditions: liver cancer PDX model, 60 mg/kg oral QD
compound,measurement,setting,value
"CNC(=O)c1cc(Oc2ccc(NC(=O)Nc3ccc(Cl)c(C(F)(F)F)c3)cc2)ccn1 [Sorafenib, reference compound]",T/C,Day 21,31%
same,TGI,Day 21,80%
same,Tumor volume at Day 21,mean ± SEM,304 ± 73 mm^3
